We go through two compounds from paper PMC3236199, “Development of Derivatives of 3, 3′-Diindolylmethane as Potent Leishmania donovani Bi-Subunit Topoisomerase IB Poisons” (PLoS ONE, 2011).

The target of one assay is CT DNA. Details: method as in PMID 17922678. The note with it: interaction with DNA; read-out: dissociation constant (KD); cited from earlier work.
The subject of a further assay is LdTOP1LS. Briefly: Plasmid cleavage assay. In kind it is biochemical, Leishmania donovani. As to conditions: 20 µM, pHOT1 DNA. As for the experimental part:
Cleavage assay was carried out as described previously. Briefly, 50 fmol of pHOT1 supercoiled DNA (containing topoisomerase I cleavage site) and 100 fmol of reconstituted LdTOP1LS were incubated in standard reaction mixture (50 µl) containing 50 mM Tris/HCl (pH 7.5), 100 mM KCl, 10 mM MgCl2, 0.5 mM DTT, 0.5 mM EDTA and 30 µg/ml BSA in the presence of various concentrations of drugs at 37°C for 30 min. The reactions were terminated by adding 1% SDS and 150 µg/ml proteinase K and further incubated for 1 h at 37°C. DNA samples were electrophoresed in a 1% agarose gel containing 0.5 µg/ml EtBr.
The effect of DIM and its derivatives on L. donovani topoisomerase I was examined by plasmid DNA cleavage assay as described. The topoisomerase reaction has three general mechanistic steps: (i) binding of enzyme to the substrate DNA, (ii) single strand breakage and subsequent strand rotation through the break leading to change in linking number, and (iii) strand religation. The second step of reaction is the introduction of a single-stranded nick in the phosphodiester bond of the DNA, through which an intact strand is allowed to pass. […]

As to `c1ccc2c(Cc3c[nH]c4ccccc34)c[nH]c2c1` [DIM, 3, 3′-diindolyl methane, reference compound], on CT DNA, the dissociation constant (Kd) is 22 µM. Consider `COc1ccc2[nH]cc(Cc3c[nH]c4ccc(OC)cc34)c2c1` [DMODIM, 5,5′-dimethoxy 3,3′-diindolyl methane], for which, in the assay with LdTOP1LS, the “conversion of closed circular DNA (form I) to nicked circular DNA (form II)” value was “didn't cause conversion of all the form I DNA to form II”.
